Values quoted from earlier work, collected in PMC6048117 (Scientific Reports, 2018).
Where two headings read alike, the source gives them in different places.

What was measured:
[1] = system: nigral 6-OHDA partial or full lesion rat model

Substance	Efficacy in nigral 6-OHDA partial or full lesion rat model [1]	Neuroprotection in MPTP model (MPTP model; 25 nmol/kg)	Neuroprotection in MPTP model (MPTP model; 10 nmol/kg)
liraglutide (HAEGTFTSDVSSYLEGQAAKEFIAWLVRGRG; chains of the INN, looked up) [GLP-1R agonist]	failed to demonstrate efficacy	did demonstrate neuroprotection	–
lixisenatide	–	–	did demonstrate neuroprotection
